Data published in patent publication US20170281732A1, “METHODS OF TREATING MILD BRAIN INJURY” (OXEIA BIOPHARMACEUTICALS, INC., priority 2014, published 2017).

Key:
ischemic brain injury = settings: in vivo; cited from earlier work
[1] = system: rat model of Parkinson's disease; settings: cited from earlier work
GHS-R = GHS-R (Homo sapiens, UniProt Q92847); test: GHS-R antagonist activity in a cell based assay (Table 4, Exemplary GHS-R Modulating Compounds)
[2] = system: oxidative burst in inflammatory cells following mBI; test: Oxidative burst in brain inflammatory cells following mBI (controlled cortical impact, DHR 123 flow cytometry); type: in vivo, C57/B6 mice; settings: subcutaneous ghrelin after mBI, compared to mBI without treatment; mice
Procedure: Ghrelin variant administration reduces oxidative burst in inflammatory cells following mBI. Since no well-accepted animal model exists for concussions, a very small cerebral lesion that closely mimics mBI is used as a model of mBI. C57/B6 mice anesthetized with 5% isoflurane in oxygen (1.7 L/min) are given 0.3 mg/kg buprenorphine subcutaneously for analgesia prior to infliction of the mild brain injury. Anesthesia is assessed by paw pinch reflex. After creating a burr hole through the dura with a dental drill, a lesion using a controlled cortical impactor (CCI) is used to create injury 1 mm lateral and posterior to the bregma (5.0 mm/sec at a depth of 1.0 mm).
Animals are separated into three treatment groups: 1) Sham, 2) mBI, and 3) mBI plus ghrelin variant. A variety of doses can be tested depending upon the particular ghrelin variant. For example, 1 to 50 μg at one or more time points. As one example, treatment with subcutaneous ghrelin variant: 1 dose of 10 μg following mBI and additional dose 10 μg 1 hour after. Brain tissue is harvested at 2-8 hours, preferably about 6 hours post-injury. […] The fluorescence is then measured (AFU), higher intensity means greater oxidative burst and, therefore greater concentration or amount of ROS. […] Oxidative burst, which is a marker for ROS, can be measured by respiratory burst using flow cytometry (e.g., FL1 channel with 488-nm laser).

[3] = Matsumoto et al., 2001, Biochem. Biophys. Res. Commun. 284:655-659; cited from earlier work

Chain of GHS-R (Q92847 whole entry): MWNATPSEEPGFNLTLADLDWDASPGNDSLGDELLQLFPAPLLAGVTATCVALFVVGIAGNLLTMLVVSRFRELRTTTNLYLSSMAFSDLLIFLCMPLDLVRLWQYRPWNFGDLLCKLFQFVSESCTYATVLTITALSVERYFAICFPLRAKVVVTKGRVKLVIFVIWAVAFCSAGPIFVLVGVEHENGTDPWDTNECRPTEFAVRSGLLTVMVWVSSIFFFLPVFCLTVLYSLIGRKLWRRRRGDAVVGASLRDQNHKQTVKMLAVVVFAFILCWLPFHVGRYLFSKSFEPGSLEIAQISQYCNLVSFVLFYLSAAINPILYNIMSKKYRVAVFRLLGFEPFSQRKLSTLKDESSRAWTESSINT

C=CC[C@]12CCCN1C(=O)CNC2=O [NNZ-2591, cyclo-L-glycyl-L-2-allylproline]
neuroprotection after ischemic brain injury (ischemic brain injury): neuroprotective
motor function [1]: improves motor function

CCN(CC)CCCS(=O)(=O)N[C@H](CCc1ccccc1)c1nc(-c2ccc3nccn3c2)n[nH]1 [Compound 134, 3-Diethylamino-propane-1-sulfonic acid {(R)-1-[5-(1H-imidazo[1,2,-a]pyridin-6-yl)-2H-[1,2,4]triazol-3-yl]-3-phenyl-propyl}-amide]
Ki (GHS-R): 100 to 500 nM

Ghrelin (GSSFLSPEHQRVQQRKESKKPPAKLQPR)
Oxidative burst as quantified by Arbitrary Fluorescence Units (AFU) [2]: reduced the oxidative burst compared to mBI

CCCCCCCCOC[C@H](NC(=O)CCCCN)C(=O)N[C@@H](Cc1ccccc1)C(=O)N[C@@H](CC(C)C)C(=O)NCCN [5-aminopentanoyl-Ser(Octyl)-Phe-Leu-aminoethylamide]
ghrelin activity [3]: potent ghrelin activity
